Experimental data published in patent US12012467B2, “Small molecule DCN1 inhibitors and therapeutic methods using the same” (THE REGENTS OF THE UNIVERSITY OF MICHIGAN, priority 2017, dated 2024).
Where a name gives a salt, the structure may show the parent alone. Read-outs that look alike come from different tables or passages of the source. Numbered stars: 1 amine (or outer) side, 2 acyl side, 3 side chain; on linkers, the order of the positions; unused ones are H or OH. Square brackets hold non-standard residues; d marks the D form. Peptide text beside a SMILES is read from it. * marks the point of attachment. 2Nal = N[C@@H](Cc1ccc2ccccc2c1)C(=O)O; dLac = C[C@@H](O)C(=O)O; Lac = C[C@H](O)C(=O)O; CO = O=C([*:1])[*:2]; Tfa = O=C(C(F)(F)F)*; Moc = COC(=O)*; For = O=C*

Target: DCN1 (Homo sapiens (Human), UniProt Q96GG9)
Sequence (Q96GG9 58-259): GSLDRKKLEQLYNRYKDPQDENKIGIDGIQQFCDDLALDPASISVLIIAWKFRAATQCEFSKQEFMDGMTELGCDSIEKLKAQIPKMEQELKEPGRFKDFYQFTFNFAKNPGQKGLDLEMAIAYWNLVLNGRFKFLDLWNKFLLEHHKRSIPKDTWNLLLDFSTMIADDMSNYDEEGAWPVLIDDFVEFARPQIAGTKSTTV
Experiment: Competitive FP binding assay
Outline: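 FP competition with DCN1 in 100 mM phosphate pH 6.5, 0.02% Tween-20, 2% DMSO, probe 5 nM final. Equilibrated 30 min at room temperature with shaking. DCN1 was His6-tagged (uncleaved), expressed in E. coli Rosetta2 and purified by Ni-NTA and gel filtration.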

[1] = read-out: Binding affinity to DCN1 (IC50 (nM))
[2] = bounds given in μM, read-out: Binding affinity to DCN1 (IC50)

`CCC(=O)N[C@@H](Cc1ccc2ccccc2n1)C(=O)N[C@H](C(=O)N[C@@H](CCCCN)C(=O)NC(c1ccccc1)c1ccccc1)[C@@H](C)CC` [Example 130] showed an IC50 [1] of 2360 nM.

`CCC(=O)N[C@@H](Cc1cc2ccccc2cn1)C(=O)N[C@H](C(=O)N[C@@H](CCCCN)C(=O)NC(c1ccccc1)c1ccccc1)[C@@H](C)CC` [Example 131] showed an IC50 [1] of 2610 nM.

With `CCC(=O)N[C@@H](Cc1ccccn1)C(=O)N[C@H](C(=O)N[C@@H](CCCCN)C(=O)NC(c1ccccc1)c1ccccc1)[C@@H](C)CC` [Example 132] the IC50 [2] was greater than 10000 nM.

Compound `CCC(=O)N[C@@H](Cc1cccnc1)C(=O)N[C@H](C(=O)N[C@@H](CCCCN)C(=O)NC(c1ccccc1)c1ccccc1)[C@@H](C)CC` [Example 133] has an IC50 [2] greater than 10000 nM.

Compound `CCC(=O)N[C@@H](Cc1cccc(C)n1)C(=O)N[C@H](C(=O)N[C@@H](CCCCN)C(=O)NC(c1ccccc1)c1ccccc1)[C@@H](C)CC` [Example 134] has an IC50 [2] greater than 10000 nM.

`CCC(=O)N[C@@H](Cc1ccc(C)cn1)C(=O)N[C@H](C(=O)N[C@@H](CCCCN)C(=O)NC(c1ccccc1)c1ccccc1)[C@@H](C)CC` [Example 135] gave an IC50 [2] greater than 10000 nM.

Compound `CCC(=O)N[C@@H](Cc1nc2ccccc2n1C)C(=O)N[C@H](C(=O)N[C@@H](CCCCN)C(=O)NC(c1ccccc1)c1ccccc1)[C@@H](C)CC` [Example 136] has an IC50 [2] greater than 5000 nM.

For `CC[C@H](C)[C@H](NC(=O)[C@H](Cc1ccc2ccccc2c1)NC(=O)C(F)(F)F)C(=O)N[C@@H](CCCCN)C(=O)N[C@@H](CC(C)C)C(N)=O` [Example 137] (Tfa-[2Nal]IKL-NH2), the “Binding affinity to DCN1 (IC50 (nM))” value was “precipitation”.

`CCC(=O)N[C@@H](Cc1ccc2ccccc2c1)C(=O)N[C@H](C(=O)N[C@@H](CCCCN)C(=O)NC(c1ccc(F)cc1)c1ccc(F)cc1)C1CCCC1` [Example 138] showed an IC50 [1] of 1750 nM.

`CCC(=O)N[C@@H](Cc1ccc2ccccc2c1)C(=O)N[C@H](C(=O)N[C@@H](CN(C)C)C(=O)NC(c1ccc(F)cc1)c1ccc(F)cc1)C1CCCC1` [Example 139] showed an IC50 [2] greater than 10000 nM.

With `CCC(=O)N[C@@H](Cc1ccc2ccccc2c1)C(=O)N[C@H](C(=O)N[C@@H](CCCCN(C)C)C(=O)NC(c1ccc(F)cc1)c1ccc(F)cc1)C1CCCC1` [Example 140] the IC50 [1] was 483 nM.

`CCC(=O)N[C@@H](Cc1ccc2ccccc2c1)C(=O)N[C@H](C(=O)N[C@@H](CCCCN1CCOCC1)C(=O)NC(c1ccc(F)cc1)c1ccc(F)cc1)C1CCCC1` [Example 141] was tested, and the IC50 [1] was 871 nM.

Compound `CC[C@H](C)[C@H](NC(=O)[C@@H](N)Cc1ccc2ccccc2c1)C(=O)N[C@@H](CCCCN)C(=O)N[C@@H](CC(C)C)C(N)=O` [Example 142] (H-[2Nal]IKL-NH2) has an IC50 [2] greater than 10000 nM.

`CC[C@H](C)[C@H](NC(=O)[C@H](Cc1ccc2ccccc2c1)NC=O)C(=O)N[C@@H](CCCCN)C(=O)N[C@@H](CC(C)C)C(N)=O` [Example 143] (For-[2Nal]IKL-NH2) was tested, and the IC50 [2] was greater than 10000 nM.

With `CCC(=O)N[C@@H](Cc1ccc2ccccc2c1)C(=O)N[C@H](C(=O)N[C@@H](CCCCNC1CCN(C)CC1)C(=O)NC(c1ccc(F)cc1)c1ccc(F)cc1)C1CCCC1` [Example 144] the IC50 [1] was 273 nM.

Work on `CCC(=O)N[C@H](Cc1ccc2ccccc2c1)C(=O)N[C@H](C(=O)N[C@@H](CCCCN)C(=O)NC(c1ccccc1)c1ccccc1)C1CCCC1` [Example 145] yielded an IC50 [2] greater than 10000 nM.

`CCC(=O)N[C@@H](Cc1ccc2ccccc2c1)C(=O)N[C@H](C(=O)N[C@@H](CCCCN(C)C)C(=O)NC(c1ccccc1)c1ccccc1)C1CCCC1` [Example 146] gave an IC50 [1] of 464 nM.

Work on `CCC(=O)N[C@@H](Cc1ccc2ccccc2c1)C(=O)N[C@H](C(=O)N[C@@H](CCCCNC1CCN(C)CC1)C(=O)NC(c1ccccc1)c1ccccc1)C1CCCC1` [Example 147] yielded an IC50 [1] of 354 nM.

In the case of `CCC(=O)N[C@@H](Cc1ccc2ccccc2c1)C(=O)N[C@H](C(=O)N[C@@H](CCCCN)C(=O)N[C@@H]1CCCc2ccccc21)C1CCCC1` [Example 148], the IC50 [1] is reported as 402 nM.

Work on `CCC(=O)N[C@@H](Cc1ccc2ccccc2c1)C(=O)N[C@H](C(=O)N[C@@H](CCCCN)C(=O)N[C@@H]1CCOc2ccccc21)C1CCCC1` [Example 149] yielded an IC50 [1] of 378 nM.

In the case of `CCC(=O)N[C@@H](Cc1ccc2ccccc2c1)C(=O)N[C@H](C(=O)N[C@@H](CCCCN)C(=O)N[C@H](CN)c1ccccc1)C1CCCC1` [Example 150], the IC50 [1] is reported as 2000 nM.

For `CCC(=O)N[C@@H](Cc1ccc2ccccc2c1)C(=O)N[C@H](C(=O)N[C@@H](CCCCN)C(=O)N[C@@H](CN)c1ccccc1)C1CCCC1` [Example 151], the IC50 [2] was greater than 10000 nM.

`CCC(=O)N[C@@H](Cc1nc2ccccc2s1)C(=O)N[C@H](C(=O)N[C@@H](CCCCN)C(=O)NC(c1ccccc1)c1ccccc1)[C@@H](C)CC` [Example 152] gave an IC50 [1] of 376 nM.

With `CCC(=O)N[C@@H](Cc1nc2cc(Cl)ccc2s1)C(=O)N[C@H](C(=O)N[C@@H](CCCCN)C(=O)NC(c1ccccc1)c1ccccc1)[C@@H](C)CC` [Example 153] the IC50 [1] was 1900 nM.

For `CCC(=O)N[C@@H](Cc1nc2ccccc2o1)C(=O)N[C@H](C(=O)N[C@@H](CCCCN)C(=O)NC(c1ccccc1)c1ccccc1)[C@@H](C)CC` [Example 154], the IC50 [1] was 981 nM.

`CCC(=O)N[C@@H](Cc1nc2cc(Cl)ccc2o1)C(=O)N[C@H](C(=O)N[C@@H](CCCCN)C(=O)NC(c1ccccc1)c1ccccc1)[C@@H](C)CC` [Example 155] was tested, and the IC50 [1] was 1200 nM.

In the case of `CCC(=O)N[C@@H](Cc1nc2ccc(Cl)cc2o1)C(=O)N[C@H](C(=O)N[C@@H](CCCCN)C(=O)NC(c1ccccc1)c1ccccc1)[C@@H](C)CC` [Example 156], the IC50 [1] is reported as 194 nM.

Work on `CCC(=O)N[C@@H](Cc1nc2ccc(OC)cc2o1)C(=O)N[C@H](C(=O)N[C@@H](CCCCN)C(=O)NC(c1ccccc1)c1ccccc1)[C@@H](C)CC` [Example 157] yielded an IC50 [1] of 265 nM.

`CCC(=O)N[C@@H](Cc1nc2ccc(Cl)cc2s1)C(=O)N[C@H](C(=O)N[C@@H](CCCCN)C(=O)NC(c1ccc(F)cc1)c1ccc(F)cc1)C1CCCC1` [Example 158] gave an IC50 [1] of 307 nM.

In the case of `CCC(=O)N[C@@H](Cc1ccc2ccccc2c1)C(=O)N[C@H](C(=O)N[C@@H](CCCCN)C(=O)N[C@H]1CNCc2ccccc21)C1CCCC1` [Example 159], the IC50 [2] is reported as greater than 3000 nM.

Compound `CCC(=O)N[C@@H](Cc1ccc2ccccc2c1)C(=O)N[C@H](C(=O)N[C@@H](CCCCN)C(=O)N[C@@H]1CNCc2ccccc21)C1CCCC1` [Example 160] has an IC50 [1] of 457 nM.

For `CCC(=O)N[C@@H](Cc1ccc2ccccc2c1)C(=O)N[C@H](C(=O)N[C@@H](CCCCN)C(=O)N[C@@H](c1ccccc1)c1cn(CCN)nn1)C1CCCC1` [Example 161], the IC50 [1] was 943 nM.

In the case of `CCC(=O)N[C@@H](Cc1nc2ccc(Cl)cc2s1)C(=O)N[C@H](C(=O)N[C@@H](CCCCN)C(=O)N[C@H]1CNCc2ccccc21)C1CCCC1` [Example 162], the IC50 [1] is reported as 797 nM.

In the case of `CCC(=O)N[C@@H](Cc1ccc2ccccc2c1)C(=O)N[C@H](C(=O)N[C@@H](CCCCN)C(=O)N[C@@H]1CCOc2cccc(Cl)c21)C1CCCC1` [Example 163], the IC50 [1] is reported as 103 nM.

`CCC(=O)N[C@@H](Cc1ccc2ccccc2c1)C(=O)N[C@H](C(=O)N[C@@H](CCCCN)C(=O)N[C@@H]1CCOc2ccc(Cl)cc21)C1CCCC1` [Example 164] showed an IC50 [1] of 394 nM.

`CCC(=O)N[C@@H](Cc1ccc2ccccc2c1)C(=O)N[C@H](C(=O)N[C@@H](CCCCN)C(=O)N[C@@H]1CCOc2cc(Cl)ccc21)C1CCCC1` [Example 165] gave an IC50 [1] of 122 nM.

`CCC(=O)N[C@@H](Cc1ccc2ccccc2c1)C(=O)N[C@H](C(=O)N[C@@H](CCCCN)C(=O)N[C@@H]1CCOc2c(Cl)cccc21)C1CCCC1` [Example 166] gave an IC50 [1] of 193 nM.

In the case of `CC[C@H](C)[C@H](NC(=O)[C@H](Cc1ccc2ccccc2c1)NC(=O)[C@@H](C)O)C(=O)N[C@@H](CCCCN)C(=O)N[C@@H](CC(C)C)C(N)=O` [Example 167] (H-[dLac][2Nal]IKL-NH2), the IC50 [2] is reported as greater than 10000 nM.

`CC[C@H](C)[C@H](NC(=O)[C@H](Cc1ccc2ccccc2c1)NC(=O)[C@H](C)O)C(=O)N[C@@H](CCCCN)C(=O)N[C@@H](CC(C)C)C(N)=O` [Example 168] (H-[Lac][2Nal]IKL-NH2) showed an IC50 [2] greater than 10000 nM.

Compound `CC[C@H](C)[C@H](NC(=O)[C@H](Cc1ccc2ccccc2c1)NC(=O)NC)C(=O)N[C@@H](CCCCN)C(=O)N[C@@H](CC(C)C)C(N)=O` [Example 169] ({NHMe-CO}-[2Nal]IKL-NH2) has an IC50 [2] greater than 10000 nM.

Compound `CC[C@H](C)[C@H](NC(=O)[C@H](Cc1ccc2ccccc2c1)NC(=O)OC)C(=O)N[C@@H](CCCCN)C(=O)N[C@@H](CC(C)C)C(N)=O` [Example 170] (Moc-[2Nal]IKL-NH2) has an IC50 [2] greater than 10000 nM.

Work on `CCC(=O)N[C@@H](Cc1nc2ccc(Cl)cc2s1)C(=O)N[C@H](C(=O)N[C@@H](CCCCN)C(=O)N[C@@H]1CCOc2cc(Cl)ccc21)C1CCCC1` [Example 171] yielded an IC50 [1] of 168 nM.

`CCC(=O)N[C@@H](Cc1nc2ccc(Cl)cc2s1)C(=O)N[C@H](C(=O)N[C@@H](CCCCN)C(=O)N[C@@H]1CCOc2cccc(Cl)c21)C1CCCC1` [Example 172] gave an IC50 [1] of 121 nM.

Work on `CCC(=O)N[C@@H](Cc1nc2ccc(C)cc2s1)C(=O)N[C@H](C(=O)N[C@@H](CCCCN)C(=O)NC(c1ccccc1)c1ccccc1)C1CCCC1` [Example 173] yielded an IC50 [1] of 58.1 nM.

`CCC(=O)N[C@@H](Cc1nc2ccc(CC)cc2s1)C(=O)N[C@H](C(=O)N[C@@H](CCCCN)C(=O)NC(c1ccccc1)c1ccccc1)C1CCCC1` [Example 174] was tested, and the IC50 [1] was 77.5 nM.

`CCC(=O)N[C@@H](Cc1nc2ccc(C)cc2s1)C(=O)N[C@H](C(=O)N[C@@H](CCCCN)C(=O)N[C@@H]1CCOc2ccccc21)C1CCCC1` [Example 175] was tested, and the IC50 [1] was 90.6 nM.

Compound `CCC(=O)N[C@@H](Cc1nc2ccc(CC)cc2s1)C(=O)N[C@H](C(=O)N[C@@H](CCCCN)C(=O)N[C@@H]1CCOc2ccccc21)C1CCCC1` [Example 176] has an IC50 [1] of 79 nM.

For `CCC(=O)N[C@@H](Cc1nc2ccc(CC)cc2s1)C(=O)N[C@H](C(=O)N[C@@H](CCCCN)C(=O)N[C@@H]1CNCc2ccccc21)C1CCCC1` [Example 177], the IC50 [1] was 79 nM.

`CCC(=O)N[C@@H](Cc1nc2ccc(C)cc2s1)C(=O)N[C@@H](CC1CCNCC1)C(=O)N[C@@H](CCCCN)C(=O)N[C@@H]1CCOc2ccccc21` [Example 178] was tested, and the IC50 [1] was 596 nM.

Work on `CCC(=O)N[C@@H](Cc1nc2ccc(C)cc2s1)C(=O)N[C@@H](Cc1ccccn1)C(=O)N[C@@H](CCCCN)C(=O)N[C@@H]1CCOc2ccccc21` [Example 179] yielded an IC50 [1] of 133 nM.
